In patent US20260060982A1, “USE OF BTK INHIBITOR AND SINGLE-DOSE DRUG” (HUBEI BIO-PHARMACEUTICAL INDUSTRIAL TECHNOLOGICAL INSTITUTE …, priority 2023, published 2026):

Legend:
BTK = BTK (Homo sapiens, UniProt Q06187); assay: Inhibition of BTK kinase activity (HTRF); type: biochemical
Description: The specific experimental steps were as follows:
The BTK kinase/peptide mix solution was added to the assay plate at 5 μL per well, and centrifuged at 1000 rpm for 1 min. The assay plate was incubated at 23° C. for 15 min.
C. An ATP solution (3968 μL of 1.33× kinase reaction buffer and […] of 10 mM ATP) was prepared, added to the assay plate at 2.5 μL per well, and centrifuged at 1000 rpm for 1 min. The assay plate was incubated at 23° C. for 90 min.
The assay plate was incubated at 23° C. for 60 min and read on the Envision multilabel reader.
E. IC50 results were analyzed using XLFIT5 (Formula 205) from IDBS.

[1] = test system: anti-DNP IgE-induced passive cutaneous anaphylaxis in BALB/c mice; assay: Passive cutaneous anaphylaxis (PCA) model in mice induced with anti-DNP IgE; type: in vivo
Source text: Passive cutaneous anaphylaxis test, also known as PCA reaction, is a local allergic reaction caused by antibodies that bind to the same or different animal tissues. The PCA animal model in the present disclosure was a passive sensitization model in which IgE binds to specific receptors on skin mast cells. When allergens were stimulated, local mast cells released allergic mediators, thereby increasing local vascular permeability. […] The specific steps were as follows:
The PCA model in mice was induced using anti-DNP IgE. Specifically, BALB/c mice were divided into 9 groups, namely, a normal control group (no administration, injection, or feeding of any solvent), a model group (no administration, injection, or feeding of any solvent), a prednisone group (10 mg/kg, administered for 3 consecutive days, QD (once a day), prednisone concentration of 1 mg/mL, and an administration volume of 10 mL/kg), a cetirizine group (20 mg/kg, administered for 3 consecutive days, QD, cetirizine concentration of 2 mg/mL, and an administration volume of 10 mL/kg), a low-dose group and a medium-dose group for the test substance LOU-064 (15 mg/kg and 45 mg/kg, administered for 3 consecutive days, BID (twice a day), LOU-064 concentrations of 1.5 mg/mL and 4.5 mg/mL, and an administration volume of 10 mL/kg), and a low-dose group, a medium-dose group, and a high-dose group for compound (I) (15 mg/kg, 45 mg/kg, and 90 mg/kg, administered for 3 consecutive days, BID, compound (I) concentrations of 1.5 mg/mL, 4.5 mg/mL, and 9 mg/mL, and an administration volume of 10 mL/kg), with 9 mice in each group, administered by gavage for a total of 4 days. On day 3 of the administration, anti-DNP IgE (Sigma-Aldrich) was injected into the left ears of 8 groups of mice (no normal control group), and the same volume of PBS was injected into the right ears of 8 groups and the left and right ears of the normal control group to allow it to bind to mast cells. Then, 24 hours after the fourth day of anti-DNP IgE injection, a mixed solution of antigen (DNP-HAS, Sigma) and pigment Evan's Blue (Sigma) (0.25 mL/mouse, i.v.) was injected into the tail vein (the normal control group was injected with the same volume of the mixed solution of antigen and pigment Evan's Blue). The antigen reacted with the antibody attached to the mast cells, causing a local allergic reaction, increased local vascular permeability, and pigment penetration into the tissue. The reaction intensity was determined by measuring the local pigment content 30 minutes later. The dye was extracted from the left and right ears, and the absorbance of Evan's blue was measured at a specific wavelength. […] The efficacy effects of each test substances in the PCA animal model were evaluated.

[2] = test system: collagen-induced arthritis in DBA/1 mice; assay: Collagen-induced arthritis (CIA) model in mice; type: in vivo; conditions: for average body weight: after day 33
Description: Clinical symptoms of arthritis were induced in mice by injecting collagen emulsion into the tail of mice. The specific steps were as follows:
DBA/1 mice were randomly divided into 6 groups, with 10 mice in each group except the blank control group (5 mice). […] The day of the first immunization was recorded as day 0, and the subsequent days were marked in sequence. DBA/1 mice were anesthetized with isoflurane and injected subcutaneously with 50 μl of the prepared collagen emulsion (containing 200 μg of CII) at the tail (2 cm to 3 cm from the base of the tail). On day 21, the same volume of collagen emulsion was injected into the tail in the same way.
On day 28, when the average clinical score reached 1 to 2, the mice were randomly redivided into 4 treatment groups (10 mice per group) and a blank vehicle control group (10 mice per group) according to body weight and score. […] The administration was performed once daily for 14 days by gavage at 10 mL/kg. After the administration, the clinical score curve of each animal in each group was analyzed to calculate the area under the curve (AUC). The inhibition rate of each administration group relative to the blank vehicle control was calculated based on the average AUC between groups.
Clinical observation: From 7 days before immunization to 21 days after immunization, the basic health status and weight changes of DBA/1 mice were observed daily (recorded twice a week). After day 22, the health status, disease incidence, and weight changes of the mice were observed daily (recorded every two days) until the end of the experiment.
When mice began to develop symptoms of arthritis (clinical symptoms of arthritis appeared), they were scored on a scale from 0 to 4 based on the severity of the lesions (redness, swelling, joint deformation), with a maximum score of 4 for each limb and a maximum score of 16 for each animal. The scoring was performed at least three times a week.
Pathology: On day 42, mice were euthanized. The two hind limbs of the mice were taken, soaked in 10% formalin solution, decalcified with formic acid solution, embedded in paraffin, sectioned, stained with hematoxylin-eosin (HE), and observed under a microscope. The degree of joint damage was evaluated from four aspects: inflammatory cell infiltration, pannus formation, cartilage damage, and bone resorption, and scored on a scale from 0 to 4.

BTK, sequence (Q06187 whole entry): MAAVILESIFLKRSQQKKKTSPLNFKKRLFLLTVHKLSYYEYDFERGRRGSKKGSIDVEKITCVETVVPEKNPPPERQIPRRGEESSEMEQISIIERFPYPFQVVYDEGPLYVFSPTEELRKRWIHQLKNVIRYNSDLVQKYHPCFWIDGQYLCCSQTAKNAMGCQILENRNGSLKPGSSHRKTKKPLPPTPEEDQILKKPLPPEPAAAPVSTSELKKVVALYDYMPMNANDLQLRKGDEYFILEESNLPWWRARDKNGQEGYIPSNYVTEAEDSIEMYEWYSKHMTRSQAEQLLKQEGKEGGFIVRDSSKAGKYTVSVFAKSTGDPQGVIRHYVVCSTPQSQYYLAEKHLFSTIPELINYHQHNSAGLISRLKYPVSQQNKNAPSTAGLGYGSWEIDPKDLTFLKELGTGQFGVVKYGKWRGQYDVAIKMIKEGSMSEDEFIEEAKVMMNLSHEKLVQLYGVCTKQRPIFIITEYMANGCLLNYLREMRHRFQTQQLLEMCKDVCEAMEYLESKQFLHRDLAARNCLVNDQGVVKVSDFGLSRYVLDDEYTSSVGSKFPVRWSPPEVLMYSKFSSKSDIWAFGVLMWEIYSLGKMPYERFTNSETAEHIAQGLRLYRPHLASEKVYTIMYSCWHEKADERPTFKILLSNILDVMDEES

Compound: C=CC(=O)N1CCC[C@@H](n2nc(-c3ccc(Oc4ccccn4)cc3)c3c(N)n[nH]c(=O)c32)C1 [compound (I), (R)-1-(1-acryloylpiperidin-3-yl)-4-amino-3-(4-(pyridin-2-yloxy)phenyl)-1H-pyrazolo[3,4-d]pyridazin-7(6H)-one]
- IC50 (BTK): ≤ 4 nM
- Concentration of Evan's Blue, Left ear, Average value ([1]; 15 mg/kg BID by gavage): 25.68 µg/mL
- Concentration of Evan's Blue, Left ear, Average value ([1]; 45 mg/kg BID by gavage): 18.21 µg/mL
- Concentration of Evan's Blue, Left ear, Average value ([1]; 90 mg/kg BID by gavage): 22.00 µg/mL
- Evan's Blue content in the modeling ear compared with the model group ([1]; three dose groups (15, 45, 90 mg/kg BID)): significantly reduced
- inflammation inhibition rate (AUC of clinical score vs blank vehicle control) ([2]; 1 mg/kg once daily by gavage for 14 days): 65.5%
- average body weight ([2]; 1 mg/kg): remained basically unchanged
- inflammation inhibition rate (AUC of clinical score vs blank vehicle control) ([2]; 3 mg/kg once daily by gavage for 14 days): 82.4%
- average body weight ([2]; 3 mg/kg): increased
- inflammation inhibition rate (AUC of clinical score vs blank vehicle control) ([2]; 10 mg/kg once daily by gavage for 14 days): 83.9%
- average body weight ([2]; 10 mg/kg): increased
- pathology of foot joint bone tissue ([2]; three dose groups (1, 3, and 10 mg/kg), day 42): only mild inflammation
